Molecular target: T1, PI3Kγ (p101/p110γ protein) (Homo sapiens, UniProt P48736)
T1 construct: HA; made in house; host or cells: Spodoptera frugiperda (Sf9) cells, baculovirus co-infection
Test: PI3Kγ In Vitro Kinase Assay
Format: biochemical
Conditions: purified recombinant p101/p110γ with G protein β1/γ2 subunits; 20 μM ATP, 25 μM PIP2; 20 minutes at room temperature
Procedure, shortened: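 Reactions ran 20 min at room temperature, pairing lipid micelles (25 μM PIP2, 300 μM PE, 0.02% Na-cholate, 10 mM MgCl2) with 20 μM ATP including [γ-32P]ATP. The enzyme was recombinant p101/p110γ (2.7 nM) with G protein β1/γ2 (57.7 nM). [32P]PIP3 product was stopped with H3PO4, filtered and scintillation counted.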

T1 sequence (P48736 whole entry, species assumed): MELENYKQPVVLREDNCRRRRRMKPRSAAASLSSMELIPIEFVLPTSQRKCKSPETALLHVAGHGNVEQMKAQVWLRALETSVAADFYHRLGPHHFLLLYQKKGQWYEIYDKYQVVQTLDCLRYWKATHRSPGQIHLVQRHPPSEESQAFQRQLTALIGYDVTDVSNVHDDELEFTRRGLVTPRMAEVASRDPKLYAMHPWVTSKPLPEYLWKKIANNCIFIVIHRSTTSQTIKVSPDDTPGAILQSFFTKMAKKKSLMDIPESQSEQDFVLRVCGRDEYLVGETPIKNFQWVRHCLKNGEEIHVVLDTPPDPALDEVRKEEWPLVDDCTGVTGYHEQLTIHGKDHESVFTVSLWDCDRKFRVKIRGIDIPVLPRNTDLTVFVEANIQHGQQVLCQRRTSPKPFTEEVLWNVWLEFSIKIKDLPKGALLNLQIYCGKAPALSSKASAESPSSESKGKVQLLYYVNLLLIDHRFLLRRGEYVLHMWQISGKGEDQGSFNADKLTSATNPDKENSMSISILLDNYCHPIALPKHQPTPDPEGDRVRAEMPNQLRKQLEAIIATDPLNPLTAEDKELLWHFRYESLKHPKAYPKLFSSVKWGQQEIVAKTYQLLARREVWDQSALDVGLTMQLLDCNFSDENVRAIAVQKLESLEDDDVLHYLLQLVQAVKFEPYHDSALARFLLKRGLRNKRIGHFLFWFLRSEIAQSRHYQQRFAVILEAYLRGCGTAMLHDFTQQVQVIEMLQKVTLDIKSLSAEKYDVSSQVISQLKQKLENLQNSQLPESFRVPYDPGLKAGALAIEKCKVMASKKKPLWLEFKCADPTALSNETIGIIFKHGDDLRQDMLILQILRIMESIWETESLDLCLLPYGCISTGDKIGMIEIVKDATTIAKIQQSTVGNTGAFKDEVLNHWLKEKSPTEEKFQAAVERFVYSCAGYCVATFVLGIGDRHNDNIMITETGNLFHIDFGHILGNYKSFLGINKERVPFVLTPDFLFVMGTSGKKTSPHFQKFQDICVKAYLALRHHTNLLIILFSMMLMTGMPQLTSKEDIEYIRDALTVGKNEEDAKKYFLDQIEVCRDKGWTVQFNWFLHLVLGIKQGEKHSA
T1 sequence (Q8WYR1 whole entry partner, species assumed): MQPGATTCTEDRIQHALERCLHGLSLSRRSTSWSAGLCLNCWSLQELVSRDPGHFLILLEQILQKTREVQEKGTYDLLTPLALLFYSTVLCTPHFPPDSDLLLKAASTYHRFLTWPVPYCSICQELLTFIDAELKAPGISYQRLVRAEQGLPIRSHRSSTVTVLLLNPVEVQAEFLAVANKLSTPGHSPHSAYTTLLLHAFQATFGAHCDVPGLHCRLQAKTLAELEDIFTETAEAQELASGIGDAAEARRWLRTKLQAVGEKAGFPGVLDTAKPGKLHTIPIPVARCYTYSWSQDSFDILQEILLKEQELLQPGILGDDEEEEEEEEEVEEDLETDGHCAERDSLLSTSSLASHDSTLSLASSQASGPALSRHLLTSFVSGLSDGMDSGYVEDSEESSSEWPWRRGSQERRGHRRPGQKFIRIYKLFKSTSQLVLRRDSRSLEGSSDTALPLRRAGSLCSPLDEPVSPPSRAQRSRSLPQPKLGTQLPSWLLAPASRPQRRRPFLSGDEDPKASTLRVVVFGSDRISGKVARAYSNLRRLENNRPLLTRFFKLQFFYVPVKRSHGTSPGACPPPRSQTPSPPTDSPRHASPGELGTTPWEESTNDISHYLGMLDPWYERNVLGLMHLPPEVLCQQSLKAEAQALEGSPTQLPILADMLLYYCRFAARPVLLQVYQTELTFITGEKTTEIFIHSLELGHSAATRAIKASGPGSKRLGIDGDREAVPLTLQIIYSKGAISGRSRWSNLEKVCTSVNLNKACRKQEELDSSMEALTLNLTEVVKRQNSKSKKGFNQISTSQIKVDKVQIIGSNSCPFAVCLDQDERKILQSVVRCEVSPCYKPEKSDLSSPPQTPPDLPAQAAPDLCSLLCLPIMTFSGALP

SMILES	IC50 [nM]
CC(C)(C)c1cc(CN2C(=O)COc3ccc(C=C4SC(=S)NC4=O)cc32)cc(C(N)=O)c1 [Example 216, 3-tert-Butyl-5-[3-oxo-6-(4-oxo-2-thioxo-thiazolidin-5-ylidenemethyl)-2,3-dihydro-1,4-benzoxazin-4-ylmethyl]-benzamide]	26
O=C1NC(=S)SC1=Cc1ccc2c(c1)N(Cc1cc(Br)cc(Br)c1)C(=O)CO2 [Example 217, 4-(3,5-Dibromo-benzyl)-6-(4-oxo-2-thioxo-thiazolidin-5-ylidenemethyl)-4H-1,4-benzoxazin-3-one]	42
Cc1cc(C)cc(C(C)N2C(=O)COc3ccc(C=C4SC(=S)NC4=O)cc32)c1 (centres unmarked) [Example 218, 4-[1-(3,5-Dimethyl-phenyl)-ethyl]-6-(4-oxo-2-thioxo-thiazolidin-5-ylidenemethyl)-4H-1,4-benzoxazin-3-one]	55
CC(C)(C)c1cc(CN2C(=O)COc3ccc(C=C4SC(=O)NC4=O)cc32)cc(C(C)(C)C)c1O [Example 219, 5-[4-(3,5-Di-tert-butyl-4-hydroxy-benzyl)-3-oxo-3,4-dihydro-2H-1,4-benzoxazin-6-ylmethylene]-thiazolidine-2,4-dione]	6
CC(C)(C)c1cc(CN2C(=O)COc3c(F)cc(C=C4SC(=S)NC4=O)cc32)cc(C(C)(C)C)n1 [Example 220, 4-(2,6-Di-tert-butyl-pyridin-4-ylmethyl)-8-fluoro-6-(4-oxo-2-thioxo-thiazolidin-5-ylidenemethyl)-4H-1,4-benzoxazin-3-one]	495
Cc1cc(C=C2SC(=S)NC2=O)cc2c1OCC(=O)N2Cc1cc(C(C)(C)C)nc(C(C)(C)C)c1 [Example 221, 4-(2,6-Di-tert-butyl-pyridin-4-ylmethyl)-8-methyl-6-(4-oxo-2-thioxo-thiazolidin-5-ylidenemethyl)-4H-1,4-benzoxazin-3-one]	895
CN1CCN(Cc2cc(CN3C(=O)COc4ccc(C=C5SC(=S)NC5=O)cc43)cc(C(C)(C)C)c2)CC1 [Example 222, 4-[3-tert-Butyl-5-(4-methyl-piperazin-1-ylmethyl)-benzyl]-6-(4-oxo-2-thioxo-thiazolidin-5-ylidenemethyl)-4H-1,4-benzoxazin-3-one]	6
CC1Oc2ccc(C=C3SC(=S)NC3=O)cc2N(Cc2ccc(CN3CCN(C)CC3)cc2)C1=O (centres unmarked) [Example 223, 2-Methyl-4-[4-(4-methyl-piperazin-1-ylmethyl)-benzyl]-6-(4-oxo-2-thioxo-thiazolidin-5-ylidenemethyl)-4H-1,4-benzoxazin-3-one]	295
Cc1cc(C=C2SC(=O)NC2=O)cc2c1OCC(=O)N2Cc1cc(C(C)(C)C)nc(C(C)(C)C)c1 [Example 224, 5-[4-(2,6-Di-tert-butyl-pyridin-4-ylmethyl)-8-methyl-3-oxo-3,4-dihydro-2H-1,4-benzoxazin-6-ylmethylene]-thiazolidine-2,4-dione]	255
O=C1NC(=S)SC1=Cc1ccc2c(c1)N(Cc1cc(Cl)nc(Cl)c1)C(=O)CO2 [Example 225, 4-(2,6-Dichloro-pyridin-4-ylmethyl)-6-(4-oxo-2-thioxo-thiazolidin-5-ylidenemethyl)-4H-1,4-benzoxazin-3-one]	49
O=C1NC(=O)C(=Cc2ccc3c(c2)N(Cc2cc(Cl)nc(Cl)c2)C(=O)CO3)S1 [Example 226, 5-[4-(2,6-Dichloro-pyridin-4-ylmethyl)-3-oxo-3,4-dihydro-2H-1,4-benzoxazin-6-ylmethylene]-thiazolidine-2,4-dione]	34200
O=C1NC(=O)C(=Cc2ccc3c(c2)N(Cc2ccncc2)C(=O)CO3)S1 [Example 227, 5-(3-Oxo-4-pyridin-4-ylmethyl-3,4-dihydro-2H-1,4-benzoxazin-6-ylmethylene)-thiazolidine-2,4-dione]	48
CN1CCN(Cc2ccc(CN3C(=O)COc4ccc(C=C5SC(=O)NC5=O)cc43)cc2)CC1 [Example 228, 5-{4-[4-(4-Methyl-piperazin-1-ylmethyl)-benzyl]-3-oxo-3,4-dihydro-2H-1,4-benzoxazin-6-ylmethylene}-thiazolidine-2,4-dione]	3
Cc1cc(CN2C(=O)COc3ccc(C=C4SC(=S)NC4=O)cc32)cc(C)n1 [Example 229, 4-(2,6-Dimethyl-pyridin-4-ylmethyl)-6-(4-oxo-2-thioxo-thiazolidin-5-ylidenemethyl)-4H-1,4-benzoxazin-3-one]	20

Now from value to compound:

IC50 [nM]	SMILES
43	Cc1cc(CN2C(=O)COc3ccc(C=C4SC(=O)NC4=O)cc32)cc(C)n1 [Example 230, 5-[4-(2,6-Dimethyl-pyridin-4-ylmethyl)-3-oxo-3,4-dihydro-2H-1,4-benzoxazin-6-ylmethylene]-thiazolidine-2,4-dione]
50	COC(=O)c1nc(CN2C(=O)COc3ccc(C=C4SC(=S)NC4=O)cc32)ncc1OC [Example 231, 5-Methoxy-2-[3-oxo-6-(4-oxo-2-thioxo-thiazolidin-5-ylidenemethyl)-2,3-dihydro-1,4-benzoxazin-4-ylmethyl]-pyrimidine-4-carboxylic acid methyl ester]
125	Cc1cc(C)nc(CN2C(=O)COc3ccc(C=C4SC(=S)NC4=O)cc32)n1 [Example 232, 4-(4,6-Dimethyl-pyrimidine-2-ylmethyl)-6-(4-oxo-2-thioxo-thiazolidin-5-ylidenemethyl)-4H-benzo[1,4]oxazin-3-one]
35	O=C1NC(=S)SC1=Cc1cc(F)c2c(c1)N(Cc1ccc(Cl)c(C(F)(F)F)c1)C(=O)CO2 [Example 233, 4-(4-Chloro-3-trifluoromethyl-benzyl)-8-fluoro-6-(4-oxo-2-thioxo-thiazolidin-5-ylidenemethyl)-4H-1,4-benzoxazin-3-one]
2070	CC(C)(C)c1cc(C(C)(C)C)nc(CN2C(=O)COc3ccc(CC4SC(=S)NC4=O)cc32)n1 (centres unmarked) [Example 234, 4-(4,6-Di-tert-butyl-pyrimidin-2-ylmethyl)-6-(4-oxo-2-thioxo-thazolidin-5-ylmethyl)-4H-benzo[1,4]oxazin-3-one]
1240	CC(C)(C)c1cc(C(C)(C)C)nc(CN2C(=O)COc3c(F)cc(CC4SC(=S)NC4=O)cc32)n1 (centres unmarked) [Example 235, 4-(4,6-Di-tert-butyl-pyrimidin-2-ylmethyl)-8-fluoro-6-(4-oxo-2-thioxo-thazolidin-5-ylmethyl)-4H-benzo[1,4]oxazin-3-one]
5	CC(C)(C)c1cc(CN2C(=O)COc3c(F)cc(CC4SC(=S)NC4=O)cc32)cc(C(C)(C)O)c1 (centres unmarked) [Example 236, 4-[3-tert-Butyl-5(1-hydroxy-1-methyl-ethyl)-benzyl]-8-fluoro-6-(4-oxo-2-thioxo-thazolidin-5-ylmethyl)-4H-benzo[1,4]oxazin-3-one]
6	CC(C)(C)c1cc(CN2C(=O)COc3ccc(C=C4SC(=S)NC4=O)cc32)cc(C(C)(C)O)c1 [Example 237, 4-[3-tert-Butyl-5(1-hydroxy-1-methyl-ethyl)-benzyl]-6-(4-oxo-2-thioxo-thazolidin-5-ylmethyl)-4H-benzo[1,4]oxazin-3-one]
36	O=C1NC(=S)SC1=Cc1ccc2c(c1)N(Cc1ccc(CN3CCC4(CCCCC4)CC3)cc1)C(=O)CO2 [Example 238, 4-[4-(3-Aza-spiro[5.5]undec-3-ylmethyl)-benzyl]-6-(4-oxo-2-thioxo-thiazolidin-5-ylidenemethyl)-4H-benzo[1,4]oxazin-3-one]

Source: patent US7205295B2, “Benzoxazin-3-ones and derivatives thereof as therapeutic agents” (Warner-Lambert Company LLC, priority 2002, dated 2007)
